Series [1] can be described thus: Metabolic stability in mouse liver microsomes assessed as intrinsic clearance at 1 uM incubated for 30 mins by LC-MS/MS analysis. Type of series: ADME, Microsome. Conditions: 0.5 h. A general note: Liver microsomes are a subcellular fraction often used to study metabolism.
Series [2] in a line: Metabolic stability in human liver microsomes assessed as intrinsic clearance at 1 uM incubated for 30 mins by LC-MS/MS analysis. Type of series: ADME, Microsome. The following applies: 0.5 h.
Series [3] can be described thus: Metabolic stability in rat liver microsomes assessed as intrinsic clearance at 1 uM incubated for 30 mins by LC-MS/MS analysis. Type of series: ADME, Microsome. Conditions: 0.5 h.
Series [4] in a line: Aqueous solubility of compound at pH 6.8. The format is physicochemical. Conditions: aqueous medium.
Series [5] is described as follows: Clast in CD-1 mouse pancreas at 30 mg/kg, po. Type of series: ADME, organism-based. The following applies: in vivo, read-out: Clast.
A short description of series [6]: Half life in CD-1 mouse at 2 mg/kg, iv. Type of series: ADME, organism-based. Conditions: in vivo.
The nature of series [7]: AUC in CD-1 mouse at 2 mg/kg, iv. Type of series: ADME, organism-based. Conditions: in vivo.
Series [8] can be described thus: Oral bioavailability in CD-1 mouse at 30 mg/kg. The format is ADME, organism-based. Conditions: in vivo.
Series [9] in a line: AUC in CD-1 mouse at 30 mg/kg, po. Type of series: ADME, organism-based. Conditions: in vivo.
The nature of series [10]: Half life in CD-1 mouse pancreas at 30 mg/kg, po. Type of series: ADME, organism-based.
Series [11] is described as follows: Clast in CD-1 mouse at 2 mg/kg, iv. Conditions: in vivo, read-out: Clast. Type of series: ADME, organism-based.
A short description of series [12]: Cmax in CD-1 mouse at 2 mg/kg, iv. The format is ADME, organism-based. Set-up: dose 2 mg/kg, route intravenous. Conditions: in vivo.
Series [13] can be described thus: Cmax in CD-1 mouse pancreas at 30 mg/kg, po. Type of series: ADME, organism-based. Set-up: dose 30 mg/kg, route oral.
Series [14] can be described thus: Tmax in CD-1 mouse at 2 mg/kg, iv. The format is ADME, organism-based. Conditions: in vivo.
Series [15] can be described thus: Half life in CD-1 mouse at 30 mg/kg, po. The format is ADME, organism-based. The following applies: in vivo.
A short description of series [16]: Cmax in CD-1 mouse at 30 mg/kg, po. Type of series: ADME, organism-based. Set-up: dose 30 mg/kg, route oral. Conditions: in vivo.
A short description of series [17]: Clearance in CD-1 mouse at 2 mg/kg, iv. The format is ADME, organism-based. Conditions: in vivo.
A short description of series [18]: Tmax in CD-1 mouse pancreas at 30 mg/kg, po. Type of series: ADME, organism-based.
The nature of series [19]: Tmax in CD-1 mouse at 30 mg/kg, po. The format is ADME, organism-based. The following applies: in vivo.
A short description of series [20]: Clast in CD-1 mouse at 30 mg/kg, po. The format is ADME, organism-based. Conditions: in vivo, read-out: Clast.
The nature of series [21]: Volume of distribution at steady state in CD-1 mouse at 2 mg/kg, iv. The following applies: in vivo, read-out: Vdss. Type of series: ADME, organism-based.
Series [22] in a line: AUC in CD-1 mouse pancreas at 30 mg/kg, po. Type of series: ADME, organism-based.

SMILES strings stand for the structures.

Turning to `c1ccc(Cn2cc(-c3ccncc3)c3ccncc32)cc1`, the CLH in [1] was 90%; in [2], 83%; in series [3] it was 67%.
On to `Nc1cc(-c2cn(-c3ccccc3)c3cnccc23)ccn1`, for which the CLH in series [1] is 94%; in [2], 87%; in [3] it was 86%.
`CC1(Cn2cc(-c3ccncc3)c3ccncc32)COC1`: the CLH in [1] came to 90%; in series [2], 39%; in series [3], 69%.
As usually defined, the solubility is how much of the substance goes into solution per volume. Read a high solubility as a readily soluble substance. As to `CCN1CCN(C(=O)Nc2cc(-c3cn(C4CCOCC4)c4cnccc34)ccn2)CC1`, the values for the CLH in series [1], in [2] and in series [3] were 30%, 28% and 18%, respectively. For the same molecule, the solubility in [4] is more than 175 µM.
In the case of `c1ccc(-n2cc(-c3ccncc3)c3ccncc32)cc1`, the figures for the CLH in [1], in series [2] and in series [3] were 97%, 92% and 90%, respectively.
Consider `O=C(Nc1cc(-c2cn(C3CCOCC3)c3cnccc23)ccn1)NC1CC1`, for which the CLH worked out at 71% in series [1] and 42% in series [3].
`CC1(C)CN(C(=O)Nc2cc(-c3cn(C4CCOCC4)c4cnccc34)ccn2)C1`: the CLH in series [1] came out at 43%; in [2], 43%; in series [3] it was 45%.
With `c1cc(-c2cn(CC3CC3)c3cnccc23)ccn1`, the CLH is recorded as 97% in series [1], 87% in series [2] and 87% in [3].
On to `C[C@@H]1CN(C(=O)Nc2cc(-c3cn(C4CCOCC4)c4cnccc34)ccn2)C[C@H](C)O1`, for which the CLH in [1] turned out to be 23%; in series [3] it was 18%.
With `O=C(Nc1cc(-c2cn(-c3ccccc3)c3cnccc23)ccn1)C1CC1`, the CLH in series [1] was found to be 76%; in series [2], 44%; in [3] it was 50%.
In the case of `c1cc(-c2cn(C3CCOCC3)c3cnccc23)ccn1`, the results for the CLH in series [1] and in series [3] were 91% and 83%, respectively.
Take `CC(C)Cn1cc(-c2ccncc2)c2ccncc21`: the CLH in series [1] amounted to 95%; in series [2], 83%; in series [3], 79%.
For `O=C(Nc1cc(-c2cn(-c3ccccc3)c3cnccc23)ccn1)NC1CC1`, the results for the CLH in [1], in series [2] and in [3] were 70%, 21% and 60%, respectively.
Take `O=C(Nc1cc(-c2cn(C3CCOCC3)c3cnccc23)ccn1)N1CCOCC1`: the figures for the CLH in [1], in [2] and in series [3] were 23%, 21% and 25%, respectively.
As to `C[C@@H]1CN(C(=O)Nc2cc(-c3cn([C@H]4CC[C@@](C)(O)CC4)c4cnccc34)ccn2)C[C@H](C)O1`, the CLH was determined as 23% in series [1], 21% in [2] and 18% in series [3]. In [4], the solubility was more than 175 µM.
The half-life is how long it takes for the measured level to halve. By AUC is commonly meant concentration integrated over time. A lower AUC goes with less exposure. As usually defined, the bioavailability is dose-corrected exposure relative to a reference, in per cent. Low readings indicate poor availability, high ones good availability. As a reminder, the Cmax is the maximum level reached in the sampled fluid or tissue. Broadly, the Tmax is the time at which the peak concentration occurs. As usually defined, the clearance is the rate of elimination divided by the concentration. A higher clearance goes with efficient removal. Regarding `CCN1CCN(C(=O)Nc2cc(-c3cn(C4CCOCC4)c4cnccc34)ccn2)CC1.Cl`, the concentration in series [5] was determined as 1320 nM; in series [11], 36.6 nM; in series [20], 19 nM. Further, the half-life in [6] was 6.6 h; in [10] it was 6.6 h; in series [15], 3.4 h. Also, the AUC is 3.27 µM·h in series [7], 11 µM·h in series [9] and 144 µM·h in [22]. The bioavailability in series [8] was found to be 22.3%. For the same molecule, the Cmax was found to be 1980 nM in series [12], 13300 nM in series [13] and 1680 nM in series [16]. Further, the Tmax in [14] is 1.8 min; in [18] it was 3 h; in series [19], 3 h. In addition, the clearance in [17] was found to be 23.5 mL/min/kg. In series [21], the Vd worked out at 11 L/kg.

For the origin of these results see ChEMBL document CHEMBL4602691, “Selective DYRK1A Inhibitor for the Treatment of Type 1 Diabetes: Discovery of 6-Azaindole Derivative GNF2133” (J Med Chem, 2020).
